“Also recorded” adds a separate entry of the source.
Tests used:
A431 (EGFR^WT) cells = assay: CCK-8 cell growth assay, A431; assay type: cell-based; settings: Homo sapiens, A-431; CCK-8, 72 h; read-out: antiproliferative IC50 A431
Method: (§1) Cells were seeded into 96‐well plates at a density of 1500~3000/well in complete medium overnight. Then, cells were treated with various concentrations (0.01~1000 nmol/L) of YL143 for additional 3 days. Viable cell numbers were determined by Cell Counting Kit 8 (CCK8, CK04, Dojindo Laboratories, Japan). Each assay consisted of three replicate wells and repeated at least three times. […] Each IC50 value was expressed as mean ± SD.

A549 (EGFR^WT) cells = assay: CCK-8 cell growth assay, A549; assay type: cell-based; settings: Homo sapiens, A549; CCK-8, 72 h; read-out: antiproliferative IC50 A549
Method: as §1

Kit = Kit (Homo sapiens, UniProt P10721); assay: Z'-Lyte kinase panel, Kit; assay type: biochemical; settings: 1.5 hrs incubation
Method: (§2) Kinase activity assays were performed using the FRET-based Z′-Lyte assay according to the manufacturer’s instructions. The compounds were incubated with the kinase reaction mixture for 1.5 hrs before measurement. The data are means from two independent experiments and the variations are below 20%.

TRKA = TRKA (Homo sapiens, UniProt P04629); assay: Z'-Lyte kinase panel, TRKA; assay type: biochemical; settings: 1.5 hrs incubation
Method: as §2

BaF3 = assay: CCK-8 assay, BaF3 cells; assay type: cell-based; settings: Mus musculus, AV±SD, read-out: anti-proliferative activity BaF3
Method: as §1
The anti-proliferative activities of the compounds were evaluated using CCK-8 assay. The data were means from at least four independent experiments.

[1] = test system: H1975 (EGFR^L858R/T790M) cells; assay: CCK-8 cell growth assay, H1975; assay type: cell-based; settings: Homo sapiens, NCI-H1975; CCK-8, 72 h; AV ± SD; read-out: antiproliferative IC50 H1975
Method: as §1

[2] = test system: phosphorylation of EGFR and Erk in H1975 cells; assay: Western blot of EGFR signaling in H1975 cells; assay type: cell-based, human; settings: 4 h
Method: (§3) Cells were treated with various concentrations of compound for designed time. Then, cells were lysed using 1 × SDS sample lysis buffer (CST recommended) with protease and phosphatase inhibitors. Cell lysates were loaded and electrophoresed onto 8–12% SDS‐PAGE gel, and then, separated proteins were transferred to a PVDF film. The film was blocked with 5% fat‐free milk in TBS solution containing 0.5% Tween‐20 for 4 h at room temperature and then incubated with corresponding primary antibody (1:1000–1:200) overnight at 4°C. After washing with TBST, HRP‐conjugated secondary antibody was incubated for 2 h. And the protein signals were visualized by ECL Western Blotting Detection Kit (Thermo Scientific, Waltham, MA) and detected with Amersham Imager 600 system (GE, America).
Cells were treated with or without compound YL143 for 4 h at indicated concentration, respectively. Cells were harvested for Western blot analysis. […] NCI‐H1975 cells were treated with or without compound YL143(100 nmol/L) for 4 h, and then the medium with compound was removed and fresh medium was added. At the indicated time points, cells were harvest and proteins were extracted and subjected to Western blot analysis.

H1975 xenograft = assay: H1975 tumor xenograft in CB17-SCID mice; assay type: in vivo; settings: 30 mg/kg, po, qd
Method: Male CB17‐SCID mice were purchased from Vital River Laboratory Animal Technology Inc. (Beijing, China). H1975 cells (5 × 10^6/mouse) were injected subcutaneously in the right flanks of mice. […] All the compounds were suspended in 0.5% CMC‐Na aqueous solution. The tumor volume and body weight of animals were measured once every 2 days. Tumor volume was calculated as the L × W ^2/2 (L and W are the length and width of the tumor, respectively). All animal experiments were approved by the Institutional Animal Use and Care Committee of Guangzhou Institute of Biomedicine and Health, Chinese Academy of Science.

PDGFRA = PDGFRA (Homo sapiens, UniProt P16234); assay: Z'-Lyte kinase panel, PDGFRA; assay type: biochemical; settings: 1.5 hrs incubation
Method: as §2

[3] = test system: EGFR signal pathway in A431 cells; assay: Western blot of EGFR signaling in A431 cells; assay type: cell-based; settings: compared with H1975
Method: as §3
The selective EGFR ^L858R/T790M inhibition of YL143 was investigated in H1975, HCC827, A549, and A431 cancer cells harboring different statuses of EGFR by Western blotting analysis (Fig. 2A).

EGFR^L858R = biological target: T1, EGFR^L858R (Homo sapiens, UniProt P00533, L858R); assay: FRET-based Z'-Lyte kinase assay, EGFR L858R; assay type: biochemical; settings: AV ± SD; 1.5 h incubation
T1 construct: purchased Invitrogen
Method: (§4) The kinase activity assay was performed and optimized according to the instructions of Z’‐LYTE™ kinase assay kits from the manufacturer (PV4879, Life, America). In our experiments, 10 concentration gradients from 0.01 nmol/L to 1.0 μmol/L were used for all the compounds.

Abl = Abl (Homo sapiens, UniProt P00519); assay: Z'-Lyte kinase panel, Abl; assay type: biochemical; settings: 1.5 hrs incubation
Method: as §2

CSF1R = CSF1R (Homo sapiens, UniProt P07333); assay: Z'-Lyte kinase panel, CSF1R; assay type: biochemical; settings: 1.5 hrs incubation
Method: as §2

FLT3 = FLT3 (Homo sapiens, UniProt P36888); assay: Z'-Lyte kinase panel, FLT3; assay type: biochemical; settings: 1.5 hrs incubation
Method: as §2

EGFR^T790M = biological target: T2, EGFR^T790M (Homo sapiens, UniProt P00533, T790M); assay: FRET-based Z'-Lyte kinase assay, EGFR T790M; assay type: biochemical; settings: AV ± SD; 1.5 h incubation
T2 construct: purchased Invitrogen
Method: as §4

Sequence of PDGFRA (P16234 24-1089, species assumed): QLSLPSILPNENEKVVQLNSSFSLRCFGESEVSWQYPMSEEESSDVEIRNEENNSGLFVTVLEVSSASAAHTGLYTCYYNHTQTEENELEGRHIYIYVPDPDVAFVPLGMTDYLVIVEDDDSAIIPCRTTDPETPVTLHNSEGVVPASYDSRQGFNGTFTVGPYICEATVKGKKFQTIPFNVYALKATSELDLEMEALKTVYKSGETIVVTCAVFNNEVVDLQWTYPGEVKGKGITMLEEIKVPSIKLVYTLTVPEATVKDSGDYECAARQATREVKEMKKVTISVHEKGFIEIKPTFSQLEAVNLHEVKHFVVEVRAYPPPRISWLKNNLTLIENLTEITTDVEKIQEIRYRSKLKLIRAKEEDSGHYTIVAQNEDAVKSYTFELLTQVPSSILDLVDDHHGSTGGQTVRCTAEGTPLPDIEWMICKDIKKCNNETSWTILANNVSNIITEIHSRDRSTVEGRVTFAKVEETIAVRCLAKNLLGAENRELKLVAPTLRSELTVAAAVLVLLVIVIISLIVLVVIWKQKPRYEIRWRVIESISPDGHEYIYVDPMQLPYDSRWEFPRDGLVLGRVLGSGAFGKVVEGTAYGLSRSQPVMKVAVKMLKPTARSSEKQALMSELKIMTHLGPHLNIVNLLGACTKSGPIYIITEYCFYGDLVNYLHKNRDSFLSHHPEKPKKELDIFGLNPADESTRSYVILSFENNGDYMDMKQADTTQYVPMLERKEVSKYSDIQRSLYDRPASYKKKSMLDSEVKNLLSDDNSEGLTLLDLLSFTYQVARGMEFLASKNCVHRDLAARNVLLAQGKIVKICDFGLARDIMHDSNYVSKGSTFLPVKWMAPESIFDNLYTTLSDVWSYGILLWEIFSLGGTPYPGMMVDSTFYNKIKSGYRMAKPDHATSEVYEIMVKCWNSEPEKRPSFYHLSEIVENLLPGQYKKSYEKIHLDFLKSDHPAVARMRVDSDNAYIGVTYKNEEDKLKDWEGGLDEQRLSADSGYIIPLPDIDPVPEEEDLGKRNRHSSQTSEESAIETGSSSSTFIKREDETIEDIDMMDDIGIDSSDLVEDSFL
T2 sequence (P00533 25-1210 T790M): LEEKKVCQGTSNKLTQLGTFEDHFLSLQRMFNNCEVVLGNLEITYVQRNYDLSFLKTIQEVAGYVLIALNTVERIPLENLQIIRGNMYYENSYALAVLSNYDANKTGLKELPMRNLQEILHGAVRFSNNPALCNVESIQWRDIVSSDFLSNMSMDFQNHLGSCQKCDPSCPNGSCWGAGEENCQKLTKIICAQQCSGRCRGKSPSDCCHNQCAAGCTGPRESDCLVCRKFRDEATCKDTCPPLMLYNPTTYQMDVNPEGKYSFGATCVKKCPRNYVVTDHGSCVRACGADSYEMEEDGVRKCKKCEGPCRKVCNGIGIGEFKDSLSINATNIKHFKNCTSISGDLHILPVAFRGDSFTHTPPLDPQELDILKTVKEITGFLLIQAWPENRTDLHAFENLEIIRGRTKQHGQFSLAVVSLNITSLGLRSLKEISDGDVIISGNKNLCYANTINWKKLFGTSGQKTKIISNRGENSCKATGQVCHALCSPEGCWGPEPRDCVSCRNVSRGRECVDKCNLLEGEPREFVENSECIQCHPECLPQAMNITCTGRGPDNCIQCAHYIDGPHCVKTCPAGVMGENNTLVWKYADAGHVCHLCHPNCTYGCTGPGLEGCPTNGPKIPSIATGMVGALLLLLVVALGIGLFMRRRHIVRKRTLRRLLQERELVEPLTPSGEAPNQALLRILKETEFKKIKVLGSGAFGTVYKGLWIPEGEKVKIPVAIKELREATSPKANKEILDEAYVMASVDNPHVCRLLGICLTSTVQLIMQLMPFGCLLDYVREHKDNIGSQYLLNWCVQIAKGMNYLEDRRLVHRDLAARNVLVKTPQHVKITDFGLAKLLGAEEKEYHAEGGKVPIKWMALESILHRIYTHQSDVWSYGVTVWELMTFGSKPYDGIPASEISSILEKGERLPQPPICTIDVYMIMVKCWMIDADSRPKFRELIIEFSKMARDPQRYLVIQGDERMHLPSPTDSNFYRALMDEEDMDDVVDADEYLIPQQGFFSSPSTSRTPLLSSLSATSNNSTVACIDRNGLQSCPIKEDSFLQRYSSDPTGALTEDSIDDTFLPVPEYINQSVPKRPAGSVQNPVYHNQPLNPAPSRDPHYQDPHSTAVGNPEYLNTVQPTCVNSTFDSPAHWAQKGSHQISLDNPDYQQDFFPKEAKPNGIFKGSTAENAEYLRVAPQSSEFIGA
T1 sequence (P00533 25-1210 L858R): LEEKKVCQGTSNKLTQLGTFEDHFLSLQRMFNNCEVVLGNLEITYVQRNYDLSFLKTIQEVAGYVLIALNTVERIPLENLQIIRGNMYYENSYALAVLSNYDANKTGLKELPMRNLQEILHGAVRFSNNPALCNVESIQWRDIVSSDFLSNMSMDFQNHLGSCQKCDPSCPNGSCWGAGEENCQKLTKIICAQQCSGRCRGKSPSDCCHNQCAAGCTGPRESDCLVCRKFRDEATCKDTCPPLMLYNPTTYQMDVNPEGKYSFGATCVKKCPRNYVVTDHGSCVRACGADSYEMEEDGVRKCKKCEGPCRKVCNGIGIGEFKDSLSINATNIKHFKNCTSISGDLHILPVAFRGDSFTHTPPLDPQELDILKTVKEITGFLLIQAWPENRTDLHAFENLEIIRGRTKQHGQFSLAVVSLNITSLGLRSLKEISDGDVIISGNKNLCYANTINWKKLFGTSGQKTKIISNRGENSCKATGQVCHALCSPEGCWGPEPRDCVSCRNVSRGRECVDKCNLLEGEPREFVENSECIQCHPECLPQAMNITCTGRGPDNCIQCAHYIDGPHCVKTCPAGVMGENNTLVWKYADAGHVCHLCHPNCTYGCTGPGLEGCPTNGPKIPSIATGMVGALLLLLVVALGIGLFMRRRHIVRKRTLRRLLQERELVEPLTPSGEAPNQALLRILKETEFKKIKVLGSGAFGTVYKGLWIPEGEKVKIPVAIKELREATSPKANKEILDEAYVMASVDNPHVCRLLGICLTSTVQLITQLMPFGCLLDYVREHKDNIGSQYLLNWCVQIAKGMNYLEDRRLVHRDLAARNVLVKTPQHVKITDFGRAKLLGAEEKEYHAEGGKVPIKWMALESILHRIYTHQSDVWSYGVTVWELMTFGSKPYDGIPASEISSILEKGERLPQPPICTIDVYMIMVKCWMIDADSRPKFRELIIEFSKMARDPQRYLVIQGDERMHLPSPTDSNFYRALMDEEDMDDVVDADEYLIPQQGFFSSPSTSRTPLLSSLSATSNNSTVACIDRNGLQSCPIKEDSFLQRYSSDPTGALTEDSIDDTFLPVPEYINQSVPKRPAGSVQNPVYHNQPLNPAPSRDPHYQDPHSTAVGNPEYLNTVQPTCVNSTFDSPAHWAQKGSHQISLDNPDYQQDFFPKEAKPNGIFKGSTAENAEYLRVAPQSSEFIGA
Sequence of Abl (P00519 whole entry, species assumed): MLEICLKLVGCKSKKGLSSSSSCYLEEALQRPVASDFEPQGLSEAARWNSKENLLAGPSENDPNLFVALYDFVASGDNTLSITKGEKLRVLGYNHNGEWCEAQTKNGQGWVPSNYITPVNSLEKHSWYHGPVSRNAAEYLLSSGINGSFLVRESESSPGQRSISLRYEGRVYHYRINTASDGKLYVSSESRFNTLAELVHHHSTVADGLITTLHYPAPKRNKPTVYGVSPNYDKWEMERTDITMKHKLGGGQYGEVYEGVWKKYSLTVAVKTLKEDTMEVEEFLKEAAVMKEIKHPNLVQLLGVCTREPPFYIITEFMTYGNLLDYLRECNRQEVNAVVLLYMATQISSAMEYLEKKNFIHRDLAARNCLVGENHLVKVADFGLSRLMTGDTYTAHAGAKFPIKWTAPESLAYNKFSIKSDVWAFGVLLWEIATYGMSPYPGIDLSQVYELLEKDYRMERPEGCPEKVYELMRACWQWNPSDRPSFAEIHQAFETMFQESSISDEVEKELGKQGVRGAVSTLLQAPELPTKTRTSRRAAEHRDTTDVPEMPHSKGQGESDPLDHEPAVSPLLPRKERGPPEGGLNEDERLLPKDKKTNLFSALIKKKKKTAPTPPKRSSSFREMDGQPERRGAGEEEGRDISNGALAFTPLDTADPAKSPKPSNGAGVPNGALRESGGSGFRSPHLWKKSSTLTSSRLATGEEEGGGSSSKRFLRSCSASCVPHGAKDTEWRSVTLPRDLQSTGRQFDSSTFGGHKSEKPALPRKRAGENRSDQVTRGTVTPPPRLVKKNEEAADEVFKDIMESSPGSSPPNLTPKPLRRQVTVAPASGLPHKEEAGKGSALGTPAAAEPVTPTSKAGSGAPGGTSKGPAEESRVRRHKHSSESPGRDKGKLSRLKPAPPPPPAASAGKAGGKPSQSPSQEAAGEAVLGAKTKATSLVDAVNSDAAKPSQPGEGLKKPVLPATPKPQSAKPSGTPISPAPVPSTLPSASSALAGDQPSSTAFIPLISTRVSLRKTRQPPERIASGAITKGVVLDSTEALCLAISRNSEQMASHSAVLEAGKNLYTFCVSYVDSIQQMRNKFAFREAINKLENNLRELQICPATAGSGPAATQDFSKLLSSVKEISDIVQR

`C=CC(=O)Nc1cc(C)cc(-n2c(=O)cc(C)c3cnc(Nc4ccc(N5CCN(C)CC5)cc4OC)nc32)c1` [YL143, N‐(3‐(2‐((2‐Methoxy‐4‐(4‐methylpiperazin‐1‐yl)phenyl)amino)‐5‐methyl‐7‐oxopyrido [2,3‐d]pyrimidin‐8(7H)‐yl)‐5‐methylphenyl)acrylamide] was tested, and the IC50 (A431 (EGFR^WT) cells) was greater than 1000 nM, the IC50 (A549 (EGFR^WT) cells) was greater than 1000 nM and the IC50 (Kit) was greater than 10 µM. The IC50 (TRKA) was greater than 10 µM, the IC50 (BaF3) was greater than 10 µM and the IC50 [1] was 45.2 ± 27.3 nM. For the same compound, the “phosphorylation of EGFR and Erk” value [2] was “dose‐dependently inhibited”, the “TUNEL stain of the tumor tissue” value (H1975 xenograft; 18 days) was “induced apoptosis” and the antitumor efficacy (H1975 xenograft; 18 days) was “promising antitumor efficacy; also recorded: comparable in vivo antitumor effect to that of CO1686”. For the same compound, the “tolerability (mortality, body weight)” value (H1975 xenograft; 18 days) was “well tolerated; also recorded: without significantly toxic signs”, the “hyperglycemia side effect (blood glucose)” value (H1975 xenograft; day 7 and 14, compared with CO1686) was “weaker hyperglycemia side effect” and the IC50 (PDGFRA) was greater than 10 µM. For the same compound, the “effect on EGFR signal pathway” value [3] was “obviously less potent”, the IC50 (EGFR^L858R) was 49.1 ± 4.2 nM and the IC50 (Abl) was greater than 10 µM. The IC50 (CSF1R) was greater than 10 µM, the IC50 (FLT3) was greater than 10 µM and the IC50 (EGFR^T790M) was 7.8 ± 1.1 nM.

Reference: publication PMC5911580, “YL143, a novel mutant selective irreversible EGFR inhibitor, overcomes EGFR^L858R, T790M‐mutant resistance in vitro and in vivo” (Cancer Medicine, 2018)
